Laboratory results reported in ChEMBL document CHEMBL1139872, “A high-throughput screen for aggregation-based inhibition in a large compound library” (J Med Chem, 2007).

What was measured:
Beta-lactamase [1] = molecular target: T1, Beta-lactamase (Escherichia coli K-12, UniProt P00811)
Description: Aggregate based-inhibition of Escherichia coli AmpC beta lactamase using stringent assay conditions in presence of 0.01% Triton X-100 detergent

Beta-lactamase [2] = molecular target: T1, Beta-lactamase; experiment: Inhibition of Escherichia coli AmpC beta lactamase using relaxed assay conditions in presence of 0.00001% Triton X-100 detergent

T1 sequence (P00811 whole entry): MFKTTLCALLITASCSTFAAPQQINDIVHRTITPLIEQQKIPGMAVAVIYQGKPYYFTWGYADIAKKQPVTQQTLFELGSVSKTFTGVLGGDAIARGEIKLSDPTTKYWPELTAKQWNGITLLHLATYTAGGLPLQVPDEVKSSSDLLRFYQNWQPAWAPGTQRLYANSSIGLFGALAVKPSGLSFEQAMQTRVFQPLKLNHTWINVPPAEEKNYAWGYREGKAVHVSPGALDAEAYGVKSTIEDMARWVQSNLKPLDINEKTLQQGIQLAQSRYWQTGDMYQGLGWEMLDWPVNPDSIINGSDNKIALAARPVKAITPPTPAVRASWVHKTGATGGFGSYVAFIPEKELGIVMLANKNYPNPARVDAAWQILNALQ

SMILES | IC50 (Beta-lactamase [1]) | IC50 (Beta-lactamase [2])
Cc1cc2c(C(C)C)c(O)c(O)c(C=O)c2c(O)c1-c1c(C)cc2c(C(C)C)c(O)c(O)c(C=O)c2c1O [GOSSYPOL] | 82 µM | 46 µM
Cc1cccc(OCC(=O)Nc2cccc(-c3nnc(-c4ccccc4)o3)c2)c1C | > 66 µM | 13 µM
Cc1ccc2nc(-c3ccccc3)cc(O)c2c1 | > 100 µM | > 100 µM
Clc1ccc(CSC(Cn2ccnc2)c2ccc(Cl)cc2Cl)cc1 (stereo not given) [SULCONAZOLE] | 100 µM | 20 µM
COc1c(F)c(F)c(C(=O)Nc2ccc(NC(=O)c3ccco3)cc2)c(F)c1F | > 66 µM | 20 µM
O=c1[nH]c2cc(Cl)ccc2c(O)c1-c1cccc(Oc2ccccc2)c1 | 126 µM | 22 µM

More lines, now with the values ahead:

IC50 (Beta-lactamase [1]) | IC50 (Beta-lactamase [2]) | SMILES
> 200 µM | 120 µM | O=C(Nc1cccc2ccccc12)c1ccc(Br)o1
40 µM | 20 µM | O=C(Nc1ccc(Oc2ccc(NC(=O)c3ccco3)c(NC(=O)c3ccco3)c2)cc1)c1ccco1
150 µM | 35 µM | Clc1ccccc1C(c1ccccc1)(c1ccccc1)n1ccnc1 [CLOTRIMAZOLE]
> 300 µM | 130 µM | Fc1c(F)c(F)c(CSc2nc3ccccc3[nH]2)c(F)c1F
